Calls of active or inactive are those of the source. No cut-off for these calls is given here.
How the values were obtained:
[1] = Inhibition of bovine chymotrypsin; parameters: species or system Bos taurus
Bos taurus [2] = species: Bos taurus; assay: Inhibition of bovine trypsin at 11.4 uM
Bos taurus [3] = species: Bos taurus; assay: Inhibition of bovine trypsin at 17.3 uM
[4] = Inhibition of chymotrypsin

SMILES: CC(=O)N[C@@H](CCC(N)=O)C(=O)N[C@@H]1C(=O)N[C@@H](CC(C)C)C(=O)N[C@H]2CC[C@@H](O)N(C2=O)[C@@H](Cc2ccccc2)C(=O)N(C)[C@@H](Cc2ccc(O)c(Cl)c2)C(=O)N[C@@H](C(C)C)C(=O)O[C@H]1C [CYANOPEPTOLIN 954]
- IC50 [1]: 44.5 nM
- Activity (Bos taurus [2]): inactive
- Activity (Bos taurus [3]): inactive

SMILES: CC[C@H](C)[C@@H]1NC(=O)[C@H](Cc2ccc(O)cc2)N(C)C(=O)[C@H](Cc2ccccc2)N2C(=O)[C@H](CC[C@H]2O)NC(=O)[C@H](Cc2ccccc2)NC(=O)[C@@H](NC(=O)[C@@H](O)COP(=O)(O)O)[C@@H](C)OC1=O [MICROPEPTIN T 20]
- IC50 [4]: 2.5 nM

SMILES: CC(=O)N[C@@H](CCC(N)=O)C(=O)N[C@@H]1C(=O)N[C@@H](CC(C)C)C(=O)N[C@H]2CC[C@@H](O)N(C2=O)[C@@H](Cc2ccccc2)C(=O)N(C)[C@@H](Cc2ccc(O)cc2)C(=O)N[C@@H](C(C)C)C(=O)O[C@@H]1C [NOSTOPEPTIN BN920]
- IC50 [1]: 31.2 nM
- Activity (Bos taurus [2]): inactive
- Activity (Bos taurus [3]): inactive

Reference: ChEMBL document CHEMBL1141799, “Cyanopeptolin 954, a chlorine-containing chymotrypsin inhibitor of Microcystis aeruginosa NIVA Cya 43” (J Nat Prod, 2005)
